Values of other authors as cited in patent US20240274252A1, “Dosage Calculator” (Closed Loop Medicine Ltd., priority 2023, published 2024).
Where “and” joins values, the source holds several entries; their conditions need not be identical. Equal entries are not always repeated. Where two headings read alike, the source gives them in different places.

Columns and labels:
[1] = not given; remark: listed apart in the source
[2] = for time to peak levels: immediate release
[3] = patient population
[4] = model input parameter, FIG. 4A
[5] = not given; remark: listed apart in the source

[H]/N=C(/N)c1ccc(NCc2nc3cc(C(=O)N(CCC(=O)O)c4ccccn4)ccc3n2C)cc1 [dabigatran]
increase in maximum concentration, Cmax (with Quinidine): 56%
increase in total absorption (with Quinidine): 53%
increase in total exposure (with ketoconazole): ~1.4 fold
increase in total exposure (with verapamil, depending on when the drug is taken): 2.4 fold
Change in Drug Level Exposure (AUC) ([1]; Age, per year older compared to 72 yr): 0.41% increase per year older compared to 72 yr
Change in Drug Level Exposure (AUC) ([1]; Amiodarone co-administration): 12% increase
Change in Drug Level Exposure (AUC) ([1]; CrCl = 30, relative to median CrCl of 69 in RE-LY): 1.8 fold increase
Change in Drug Level Exposure (AUC) ([1]; CrCl = 50, relative to median CrCl of 69 in RE-LY): 1.3 fold increase
decrease in Vd ([1]; Hb above 14.3 g · dL^−1): 4 %/1 g · dL^−1
Change in Drug Level Exposure (AUC) ([1]; PPIs co-administration): ~13% decrease
Change in Drug Level Exposure (AUC) ([1]; South Asians compared to other ethnicities): ~26% increase in South Asians compared to other
Change in Drug Level Exposure (AUC) ([1]; Verapamil co-administration): 23% increase
Change in activity: chance of bleeding ([1]; coadministration of Asprin, clopidogrel): Coadministration will increase chance of bleeding
Change in Drug Level Exposure (AUC) ([1]; covariate Haemoglobin): no effect on AUC
Change in Drug Level Exposure (AUC) ([1]; covariate Weight): Weight had no effect on AUC but increase in distribution
Change in Drug Level Exposure (AUC) ([1]; females compared to men): ~9% increase in females compared to men
effect on Cmax ([1]; low weight): will increase Cmax
Change in Drug Level Exposure (AUC) ([1]; patients with heart failure): ~7% increase in patients with HF
half-life ([2]; elimination after absorption): 12 to 17 h and 12 to 14 h
acyl glucuronides, mean share of parent drug in the plasma ([2]; equally active metabolites): ~10%
time to peak levels ([2]; after food): 3 to 4 h
time to peak levels ([2]; taken without food): approximately 1 hour
PK linearity ([2]; in vivo): linear
mean half-life ([2]; in vivo): 12 h
share of absorbed drug eliminated into urine ([2]; in vivo): 80%
variability in circulating plasma levels ([2]; inter-subject, from prodrug conversion and low GI absorption): up to 50%
remainder of the drug going into the faeces ([2]; oral): ~90%
time of peak absorption ([2]; oral): ~1 h
fraction of the drug absorbed from the GI tract ([2]; oral, after conversion from prodrug dabigatran etexilate): ~5% and 3-7%
increase in availability ([2]; pellets removed from the capsule): 75%
elimination via the kidney, share of total clearance ([2]; primary route of elimination): 80%
total and peak systemic exposure versus dose ([2]; range 50-400 mg twice daily): dose-proportional
delay of the peak by food ([2]; with food, total absorption not affected): ≤ 2 h
range of trough plasma levels ([3]; 110 mg dose): 25 to 160 ng/mL
range of trough plasma levels ([3]; 150 mg dose): 40 to 220 ng/mL
Ka, first order drug absorption rate constant [4]: 0.754
Q, intercompartmental clearance [4]: 35.5
Vc, central compartment volume [4]: 673
Vp, peripheral compartment volume [4]: 345

CCCCCCOC(=O)NC(=N)c1ccc(NCc2nc3cc(C(=O)N(CCC(=O)OCC)c4ccccn4)ccc3n2C)cc1 [Dabigatran etexilate]
risk of intracranial bleeds compared with warfarin ([5]; RELY): small reduction
comparison with warfarin ([5]; phase III RELY study, patients with nonvalvular AF): superior to warfarin
